Read-outs that look alike come from different tables or passages of the source.
Assays:
CYP3A4 = CYP3A4 (Homo sapiens (Human), UniProt P08684); experiment: CYP3A4 inhibition with and without preincubation; type: in vitro ADME; conditions: for inhibition at 15 µM: human, read-out: 15 μM % Inh
Procedure: (§1) Assessment of certain in vitro ADME (absorption, distribution, metabolism, and excretion) parameters for Compound I was conducted by BioFocus (Saffron Walden, UK). The results reveal that Compound I is cleared rapidly by human hepatocytes and that it has a reduced liability for time-dependent cytochrome P450 inhibition.

CYP2C9 = CYP2C9 (Homo sapiens (Human), UniProt P11712); experiment: CYP2C9 inhibition with and without preincubation; type: in vitro ADME; conditions: for inhibition at 5 μM: human, 5 μM (precipitation at 15 μM), read-out: % Inh, inhibition at 5 μM reported instead
Sequence of CYP2C9 (P11712 whole entry): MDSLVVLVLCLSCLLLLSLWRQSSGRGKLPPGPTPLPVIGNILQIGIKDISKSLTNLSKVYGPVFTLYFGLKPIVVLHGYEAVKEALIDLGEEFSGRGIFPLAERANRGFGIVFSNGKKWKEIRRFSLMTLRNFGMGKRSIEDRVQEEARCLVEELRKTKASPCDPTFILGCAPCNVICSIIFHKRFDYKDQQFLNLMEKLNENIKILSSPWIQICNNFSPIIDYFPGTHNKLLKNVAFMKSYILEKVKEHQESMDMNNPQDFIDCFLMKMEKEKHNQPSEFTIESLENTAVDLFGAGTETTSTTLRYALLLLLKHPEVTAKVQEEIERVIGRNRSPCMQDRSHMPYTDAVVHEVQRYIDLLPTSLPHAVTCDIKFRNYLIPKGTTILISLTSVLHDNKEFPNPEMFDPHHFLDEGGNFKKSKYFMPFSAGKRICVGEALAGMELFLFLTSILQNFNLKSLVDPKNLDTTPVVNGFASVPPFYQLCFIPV
Procedure: as §1

[1] = Hydrolytic stability study; type: physicochemical; conditions: DMSO and water (3:1), 1 mg/mL
Procedure: Chemical stability of Compound I was assessed in a mixture of DMSO and water (3:1) at a test compound concentration of 1 mg/mL
Sample Preparation • A 1.0 mg sample of test compound was dissolved in 750 μL of DMSO. Water (250 μL) was added slowly, ensuring no precipitation occurred.
Recording Stability • A 50 μL aliquot of the test solution was removed and analysed in duplicate by 5 μL HPLC injections. The peak area for the test compound was recorded following manual integration of the corresponding UV trace. • The test solution was heated to 60° C., with stirring, and 50 μL aliquots removed for HPLC analysis at 5 and 24 h timepoints.

non-mutant kinases = experiment: KinomeScan selectivity scores; type: binding; conditions: for number of individual kinase hits, S(1): % Ctrl <1; for number of individual kinase hits, S(10): % Ctrl <10; for number of individual kinase hits, S(35): % Ctrl <35
Procedure: Kinase enzyme binding activities of compounds disclosed herein may be determined using a proprietary assay which measures active site-directed competition binding to an immobilized ligand (Fabian, M. A. et al., Nature Biotechnol., 2005, 23:329-336). These assays may be conducted by DiscoverX (formerly Ambit; San Diego, Calif.). The percentage inhibition produced by incubation with a test compound may be calculated relative to the non-inhibited control.

d-U937 cells = experiment: Accumulation of β catenin in d-U937 cells; type: cell-based, human; conditions: 1 μg/mL; normalised to Reference compound at 1 μg/mL
Procedure: U937 cells, a human monocytic cell line, are differentiated into macrophage-type cells by incubation with PMA (100 ng/mL) for between 48 to 72 hr. The cells are then incubated with either final concentrations of test compound or vehicle for 18 hr. The induction of β-catenin by the test compound is stopped by replacing the media with 4% formaldehyde solution. Endogenous […] is neutralised by incubating with quenching buffer (100 μL, 0.1% sodium azide, 1% H2O2 in PBS with 0.05% Tween-20) for 20 min. The cells are washed with washing buffer (200 μL; PBS containing 0.05% Tween-20) and incubated with blocking solution (200 μL; 5% milk in PBS) for 1 hr, re-washed with washing buffer (200 μL) and then incubated overnight with anti-β-catenin antibody solution (50 μL) in 1% BSA/PBS (BD, Oxford, UK).
After washing with washing buffer (3×200 μL; PBS containing 0.05% Tween-20), cells are incubated with a HRP-conjugated secondary antibody solution (100 μL) in 1% BSA/PBS (Dako, Cambridge, UK) and the resultant signal is determined colourimetrically (OD: 450 nm with a reference wavelength of 655 nm) using TMB substrate (50 μL; R&D Systems, Abingdon, UK). This reaction is stopped by addition of 1N H2SO4 solution (50 μL). Cells are then washed with washing buffer and 2% crystal violet solution (50 μL) is applied for 30 min. After washing with washing buffer (3×200 μL), 1% SDS (100 μL) is added to each well and the plates are shaken lightly for 1 hr prior to measuring the absorbance at 595 nm (Varioskan® Flash, Thermo-Fisher Scientific).
The measured OD450-655 readings are corrected for cell number by dividing the OD450-655 by the OD595 readings.

Sequence of CYP3A4 (P08684 whole entry): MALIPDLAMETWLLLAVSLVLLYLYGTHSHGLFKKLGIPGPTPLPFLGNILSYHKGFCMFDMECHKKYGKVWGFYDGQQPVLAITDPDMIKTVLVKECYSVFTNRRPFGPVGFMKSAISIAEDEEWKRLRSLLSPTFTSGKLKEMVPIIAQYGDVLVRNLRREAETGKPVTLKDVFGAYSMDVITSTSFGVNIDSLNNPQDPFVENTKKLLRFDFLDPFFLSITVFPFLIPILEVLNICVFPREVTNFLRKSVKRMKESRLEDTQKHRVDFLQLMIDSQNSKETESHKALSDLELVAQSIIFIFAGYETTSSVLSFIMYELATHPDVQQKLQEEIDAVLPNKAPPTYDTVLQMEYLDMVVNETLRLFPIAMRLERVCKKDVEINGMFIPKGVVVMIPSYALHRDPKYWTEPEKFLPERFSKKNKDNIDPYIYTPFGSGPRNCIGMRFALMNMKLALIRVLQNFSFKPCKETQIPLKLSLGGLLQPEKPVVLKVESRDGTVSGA

## C#CC(C)(C)c1cc(NC(=O)Nc2ccc(Oc3ccnc(Nc4cc(C)c5[nH]ncc5c4)n3)c3ccccc23)n(-c2ccc(C)cc2)n1 [Ref Cpd A, 1-(4-((2-((7-methyl-1H-indazol-5-yl)amino)pyrimidin-4-yl)oxy)-naphthalen-1-yl)-3-(3-(2-methylbut-3-yn-2-yl)-1-(p-tolyl)-1H-pyrazol-5-yl)urea, reference compound]
CYP3A4; CYP3A4, 0 min preincubation
  IC50: > 15000 nM
  inhibition at 15 µM: 41%
CYP3A4; CYP3A4, 30 min preincubation
  IC50: 400 nM
  inhibition at 15 µM: 92%
CYP2C9; CYP2C9, 0 min preincubation
  IC50: > 5000 nM
  inhibition at 5 μM: 31%
CYP2C9; CYP2C9, 30 min preincubation
  IC50: 1400 nM
  inhibition at 5 μM: 66%

## C#Cc1cc(Nc2nccc(Oc3ccc(NC(=O)Nc4cc(C(C)C)nn4-c4ccc(C)cc4)c4ccccc34)n2)cc(C(=O)NCCN2CCOCC2)c1 [Reference Compound B, 3-ethynyl-5-((4-((4-(3-(3-isopropyl-1-(p-toly)-1H-pyrazol-5-yl)ureido)naphthalen-1-yl)oxy)pyrimidin-2-yl)amino)-N-(2-morpholinoethyl)benzamide, reference compound]
[1]; 0 min
  % Parent Remaining: 100%
[1]; 60° C., 300 min
  % Parent Remaining: 82%
[1]; 60° C., 1440 min
  % Parent Remaining: 36%

## COCC(=O)Nc1cc(Oc2ccc(NC(=O)Nc3cc(C(C)(C)C)nn3-c3ccc(C)cc3)c3ccccc23)ccn1 [Reference Compound, N-(4-(4-(3-(3-tert-butyl-1-p-tolyl-1H-pyrazol-5-yl)ureido)naphthalen-1-yloxy)pyridin-2-yl)-2-methoxyacetamide, reference compound]
non-mutant kinases; 50 nM
  number of individual kinase hits, S(1): 7
  number of individual kinase hits, S(10): 32
  number of individual kinase hits, S(35): 67
non-mutant kinases; 500 nM
  number of individual kinase hits, S(1): 45
  number of individual kinase hits, S(10): 105
  number of individual kinase hits, S(35): 143
d-U937 cells
  % β-catenin induction: 100%

— patent publication US8927563B2, “Kinase inhibitor” (Respivert Limited, priority 2013, dated 2015)
